Counter-ions that a name gives are not always drawn.

The target in the experiment is Autotaxin (Homo sapiens (Human), UniProt Q13822). Briefly: Autotaxin LPC Cascade Assay. The settings on record: Autotaxin 5 nM, LPC 100 μM, choline oxidase/HRP/Ampliflu Red fluorescence read-out, 2% DMSO, RT; read-out: IC50 ATX Activity. The format is biochemical. Summed up: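 Choline liberated from LPC by autotaxin during 1 h, after a 10-min RT compound preincubation, was converted through choline oxidase/HRP to a fluorescent Ampliflu Red product.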
Broadly, the IC50 is the concentration at which inhibition is half-maximal. `CC(C)[C@@H](NC(=O)c1cc(C(F)(F)F)ccc1F)C(=O)N1CCC2(CC1)C(=O)N(C)CN2c1ccc2nccn2c1` [Example 206, (R)-2-Fluoro-N-(1-(1-(imidazo[1,2-a]pyridin-6-yl)-3-methyl-4-oxo-1,3,8-triazaspiro[4.5]decan-8-yl)-3-methyl-1-oxobutan-2-yl)-5-(trifluoromethyl)benzamide trifluoroacetic Acid Salt]: the 50% inhibitory concentration (IC50) is under 500 nM.

Regarding `CC(C)[C@@H](NC(=O)c1cc(Cl)cc(C(F)(F)F)c1)C(=O)N1CCC2(CC1)C(=O)N(C)CN2c1ccc(=O)n(C)c1` [Example 207, (R)-3-Chloro-N-(3-methyl-1-(3-methyl-1-(1-methyl-6-oxo-1,6-dihydropyridin-3-yl)-4-oxo-1,3,8-triazaspiro[4.5]decan-8-yl)-1-oxobutan-2-yl)-5-(trifluoromethyl)benzamide], the IC50 was under 500 nM. On to `CN1CN(c2ccc(=O)n(C)c2)C2(CCN(C(=O)[C@H](NC(=O)c3cc(C(F)(F)F)ccc3F)C3CCCC3)CC2)C1=O` [Example 208, (R)—N-(1-Cyclopentyl-2-(3-methyl-1-(1-methyl-6-oxo-1,6-dihydropyridin-3-yl)-4-oxo-1,3,8-triazaspiro[4.5]decan-8-yl)-2-oxoethyl)-2-fluoro-5-(trifluoromethyl)benzamide], for which the IC50 is under 500 nM.

Regarding `COc1ccc(N2C(C)N(C)C(=O)C23CCN(C(=O)[C@H](NC(=O)c2cc(C(F)(F)F)ccc2F)C(C)C)CC3)cc1` (stereo partly drawn) [Example 209, 2-Fluoro-N-((2R)-1-(1-(4-methoxyphenyl)-2,3-dimethyl-4-oxo-1,3,8-triazaspiro[4.5]decan-8-yl)-3-methyl-1-oxobutan-2-yl)-5-(trifluoromethyl)benzamide], the concentration for half-maximal inhibition (IC50) was under 500 nM. To `CC(C)[C@@H](NC(=O)c1cc(C(F)(F)F)ccc1F)C(=O)N1CCC2(CC1)C(=O)N(C)[C@H](C)N2c1ccc(C(=O)O)cc1` [Example 212, 4-((R)-8-((R)-2-(2-Fluoro-5-(trifluoromethyl)benzamido)-3-methylbutanoyl)-2,3-dimethyl-4-oxo-1,3,8-triazaspiro[4.5]decan-1-yl)benzoic Acid] belongs under 500 nM; to `CC(C)[C@@H](NC(=O)c1cc(C(F)(F)F)ccc1F)C(=O)N1CCC2(CC1)C(=O)N(C)[C@@H](C)N2c1ccc(C(=O)O)cc1` [Example 213, 4-((S)-8-((R)-2-(2-Fluoro-5-(trifluoromethyl)benzamido)-3-methylbutanoyl)-2,3-dimethyl-4-oxo-1,3,8-triazaspiro[4.5]decan-1-yl)benzoic Acid], under 500 nM. As to `CC(C)[C@@H](NC(=O)c1cc(C(F)(F)F)ccc1F)C(=O)N1CCC2(CC1)C(=O)N(C)CN2c1ccc2[nH]ncc2c1` [Example 214, (R)—N-(1-(1-(1H-Indazol-5-yl)-3-methyl-4-oxo-1,3,8-triazaspiro[4.5]decan-8-yl)-3-methyl-1-oxobutan-2-yl)-2-fluoro-5-(trifluoromethyl)benzamide], the half-inhibitory concentration (IC50) was under 500 nM. In the case of `CCc1ccc(F)c(C(=O)N[C@@H](C(=O)N2CCC3(CC2)C(=O)N(C)CN3c2ccc3[nH]ncc3c2)C(C)C)c1` [Example 215, (R)—N-(1-(1-(1H-Indazol-5-yl)-3-methyl-4-oxo-1,3,8-triazaspiro[4.5]decan-8-yl)-3-methyl-1-oxobutan-2-yl)-5-ethyl-2-fluorobenzamide] it was under 500 nM; in that of `CCc1ccc(F)c(C(=O)N[C@@H](C(=O)N2CCC3(CC2)C(=O)N(C)CN3c2ccc3nc[nH]c3c2)C(C)C)c1` [Example 216, (R)—N-(1-(1-(1H-Benzo[d]imidazol-6-yl)-3-methyl-4-oxo-1,3,8-triazaspiro[4.5]decan-8-yl)-3-methyl-1-oxobutan-2-yl)-5-ethyl-2-fluorobenzamide], under 500 nM. To `Cc1cccc(C(=O)N[C@@H](C(=O)N2CCC3(CC2)COC(=O)N3c2ccccc2)C(C)C)c1` [Example 217, (R)-3-Methyl-N-(3-methyl-1-oxo-1-(2-oxo-1-phenyl-3-oxa-1,8-diazaspiro[4.5]decan-8-yl)butan-2-yl)benzamide] belongs at least 1000 nM; to `CC(C)[C@@H](NC(=O)c1cc(C(F)(F)F)ccc1F)C(=O)N1CCC2(CC1)C(=O)N(C)CN2c1ccc(NC2COC2)cc1` [Example 218, (R)-2-Fluoro-N-(3-methyl-1-(3-methyl-1-(4-(oxetan-3-ylamino)phenyl)-4-oxo-1,3,8-triazaspiro[4.5]decan-8-yl)-1-oxobutan-2-yl)-5-(trifluoromethyl)benzamide], under 500 nM; to `COC1CC(CN2C(=O)N(C)C(=O)C23CCN(C(=O)[C@H](NC(=O)c2cc(C(F)(F)F)ccc2F)C(C)C)CC3)C1` (stereo partly drawn) [Example 219, (R)-2-Fluoro-N-(1-(1-((3-methoxycyclobutyl)methyl)-3-methyl-2,4-dioxo-1,3,8-triazaspiro[4.5]decan-8-yl)-3-methyl-1-oxobutan-2-yl)-5-(trifluoromethyl)benzamide], at least 1000 nM. In the case of `CC(C)[C@@H](NC(=O)c1cc(C(F)(F)F)ccc1F)C(=O)N1CCC2(CC1)C(=O)N(C)CN2c1ccc(-c2nc[nH]n2)cc1` [Example 220, (R)—N-(1-(1-(4-(1H-1,2,4-Triazol-3-yl)phenyl)-3-methyl-4-oxo-1,3,8-triazaspiro[4.5]decan-8-yl)-3-methyl-1-oxobutan-2-yl)-2-fluoro-5-(trifluoromethyl)benzamide] it was under 500 nM; in that of `COC(=O)c1ccc(N2C(=O)N(C)C(=O)C23CCN(C(=O)[C@H](NC(=O)c2cc(C(F)(F)F)ccc2F)C(C)C)CC3)cc1` [Example 221, (R)-Methyl-4-(8-(2-(2-fluoro-5-(trifluoromethyl)benzamido)-3-methylbutanoyl)-3-methyl-2,4-dioxo-1,3,8-triazaspiro[4.5]decan-1-yl)benzoate], under 500 nM; in that of `CC(C)[C@@H](NC(=O)c1cc(C2CC2)ccc1F)C(=O)N1CCC2(CC1)C(=O)N(C)C(=O)N2c1ccc(C(=O)O)cc1` [Example 222, (R)-4-(8-(2-(5-Cyclopropyl-2-fluorobenzamido)-3-methylbutanoyl)-3-methyl-2,4-dioxo-1,3,8-triazaspiro[4.5]decan-1-yl)benzoic Acid], under 500 nM. As for `CC(C)[C@@H](NC(=O)c1cc(C(F)(F)F)ccc1F)C(=O)N1CCC2(CC1)C(=O)N(C)C(=O)N2c1ccc(C(=O)O)cc1` [Example 223, (R)-4-(8-(2-(2-Fluoro-5-(trifluoromethyl)benzamido)-3-methylbutanoyl)-3-methyl-2,4-dioxo-1,3,8-triazaspiro[4.5]decan-1-yl)benzoic Acid], the IC50 was under 500 nM.

For the molecule `CC(C)[C@@H](NC(=O)c1cc(C(F)(F)F)ccc1F)C(=O)N1CCC2(CC1)C(=O)N(C)C(=O)N2c1ccc(-c2nn[nH]n2)cc1` [Example 224, (R)—N-(1-(1-(4-(2H-Tetrazol-5-yl)phenyl)-3-methyl-2,4-dioxo-1,3,8-triazaspiro[4.5]decan-8-yl)-3-methyl-1-oxobutan-2-yl)-2-fluoro-5-(trifluoromethyl)benzamide], the IC50 was under 500 nM. To `CC(C)[C@@H](NC(=O)c1cc(OC(F)(F)F)ccc1F)C(=O)N1CCC2(CC1)C(=O)N(C)C(=O)N2c1ccc(-c2nn[nH]n2)cc1` [Example 225, (R)—N-(1-(1-(4-(2H-Tetrazol-5-yl)phenyl)-3-methyl-2,4-dioxo-1,3,8-triazaspiro[4.5]decan-8-yl)-3-methyl-1-oxobutan-2-yl)-2-fluoro-5-(trifluoromethoxy)benzamide] belongs under 500 nM; to `CC(C)[C@@H](NC(=O)c1cc(OC(F)F)ccc1F)C(=O)N1CCC2(CC1)C(=O)N(C)C(=O)N2c1ccc(-c2nn[nH]n2)cc1` [Example 226, (R)—N-(1-(1-(4-(2H-Tetrazol-5-yl)phenyl)-3-methyl-2,4-dioxo-1,3,8-triazaspiro[4.5]decan-8-yl)-3-methyl-1-oxobutan-2-yl)-5-(difluoromethoxy)-2-fluorobenzamide], under 500 nM. Consider `CC(C)[C@@H](NC(=O)c1cc(C(F)(F)F)ccc1F)C(=O)N1CCC2(CC1)C(=O)N(C)CN2c1ccc(-c2nn[nH]n2)cc1` [Example 227, (R)—N-(1-(1-(4-(2H-Tetrazol-5-yl)phenyl)-3-methyl-4-oxo-1,3,8-triazaspiro[4.5]decan-8-yl)-3-methyl-1-oxobutan-2-yl)-2-fluoro-5-(trifluoromethyl)benzamide], for which the IC50 is under 500 nM. To `CC(C)[C@@H](NC(=O)c1ccccn1)C(=O)N1CCC2(CC1)C(=O)N(C)C(=O)N2c1ccc2[nH]ncc2c1` [Example 228, (R)—N-(1-(1-(1H-Indazol-5-yl)-3-methyl-2,4-dioxo-1,3,8-triazaspiro[4.5]decan-8-yl)-3-methyl-1-oxobutan-2-yl)picolinamide] belongs at least 1000 nM. To `CC(C)[C@@H](NC(=O)c1cccnc1)C(=O)N1CCC2(CC1)C(=O)N(C)C(=O)N2c1ccc2[nH]ncc2c1` [Example 229, (R)—N-(1-(1-(1H-Indazol-5-yl)-3-methyl-2,4-dioxo-1,3,8-triazaspiro[4.5]decan-8-yl)-3-methyl-1-oxobutan-2-yl)nicotinamide] belongs at least 1000 nM.

As to `CC(C)[C@@H](NC(=O)C1CCCCC1)C(=O)N1CCC2(CC1)C(=O)N(C)C(=O)N2c1ccc2[nH]ncc2c1` [Example 230, (R)—N-(1-(1-(1H-Indazol-5-yl)-3-methyl-2,4-dioxo-1,3,8-triazaspiro[4.5]decan-8-yl)-3-methyl-1-oxobutan-2-yl)cyclohexanecarboxamide], the IC50 is at least 1000 nM. In the case of `CC(C)[C@@H](NC(=O)c1ccncc1)C(=O)N1CCC2(CC1)C(=O)N(C)C(=O)N2c1ccc2[nH]ncc2c1` [Example 231, (R)—N-(1-(1-(1H-Indazol-5-yl)-3-methyl-2,4-dioxo-1,3,8-triazaspiro[4.5]decan-8-yl)-3-methyl-1-oxobutan-2-yl)isonicotinamide] it was at least 1000 nM. To `CC(C)[C@@H](NC(=O)C(C)(C)C)C(=O)N1CCC2(CC1)C(=O)N(C)C(=O)N2c1ccc2[nH]ncc2c1` [Example 232, (R)—N-(1-(1-(1H-Indazol-5-yl)-3-methyl-2,4-dioxo-1,3,8-triazaspiro[4.5]decan-8-yl)-3-methyl-1-oxobutan-2-yl)pivalamide] belongs at least 1000 nM.
